Reference: article PMC8449061, “A structural model for (GlcNAc)2 translocation via a periplasmic chitooligosaccharide-binding protein from marine Vibrio bacteria” (The Journal of Biological Chemistry, 2021)

Tests used:
Type in all cases: binding
VhCBP F437A = test: ITC titration of VhCBP mutant F437A with (GlcNAc)2
From the text: (§1) These proteins were used for ITC binding experiments with (GlcNAc)2 as the ligand. […] Degrees of conservation among five members of cluster/subcluster C-IV SBPs (VhCBP, VcCBP, TmCeBP, TmMnBP1, and TmMnBP2) are also represented by coloring dark red (high degree of conservation) to pale red (moderate degree of conservation) to white (low degree of conservation).
(§2) Figure 5 ITC profiles obtained from (GlcNAc)2titration using VhCBP WT and mutants. Thermograms (upper) and binding isotherms with theoretical fits (lower) of the individual titrations are presented. Titration experiments were conducted in 20 mM Tris HCl, pH 8.0, at 25 °C. ITC, isothermal titration calorimetry. VhCBP, CBP from Vibrio campbellii type strain ATCC BAA-1116.
(§3) ITC experiments were conducted by titrating 200 μM (GlcNAc)n (n = 2, 3, or 4) solutions from the injection syringe into 20 μM WT VhCBP in the sample cell. The titrations were performed in 20 mM Tris-HCl buffer, pH 8.0, by a PEAQ-ITC (Malvern Instruments) using the operational software installed in the equipment. Briefly, the temperature in the sample cell was maintained at 25 °C, and the difference in temperature (ΔT) between the reference cell and the sample cell was compensated by heaters fitted to the cells. The compensation energy utilized per second was plotted against experimental time. Peak integrations of the individual troughs were replotted against the molar ratio of the ligand to protein. The binding isotherm thus obtained was used for data-fitting analysis using the ‘One-Set of Sites’ model defined in MicroCal PEAQ-ITC Analysis Software to obtain Kd, ΔG°, ΔH°, and ΔS° terms. […] Titrations of (GlcNAc)2 to the individual VhCBP mutants were performed as described for the WT protein.
(§4) Table S2: ITC experimental conditions for titration of VhCBP and its mutants with (GlcNAc) 2-4 .
(§5) Table S3: Conditions for co-crystallization of VhCBP mutants with (GlcNAc) 2.

VhCBP S221A = test: ITC titration of VhCBP mutant S221A with (GlcNAc)2
From the text: as §1, §2, §3, §4, §5

VhCBP W513A = test: ITC titration of VhCBP mutant W513A with (GlcNAc)2
From the text: as §1, §2, §3, §4, §5

VhCBP F411A = test: ITC titration of VhCBP mutant F411A with (GlcNAc)2
From the text: as §1, §2, §3, §4, §5

VhCBP WT = test: ITC titration of WT VhCBP with (GlcNAc)2–4; conditions: for ΔG° / ΔH° / −TΔS° / Kd: 20 mM Tris-HCl pH 8.0, 25 °C; for ΔG° / ΔH° / −TΔS°: mean ± SD; for Kd: n fixed at 1, mean ± SD of three experiments; for fold lower affinity than (GlcNAc)2: from Kd values
Method: We previously reported ITC data for (GlcNAc)2–4 binding to VhCBP in 20 mM potassium phosphate, pH 8.0, at 4 °C ([13]). Here, we re-evaluated the ITC data by conducting binding experiments in Tris HCl, pH 8.0, at 25 °C using (GlcNAc)n (n = 2–4) as the ligands. The binding interactions for individual ligands were determined assuming a 1:1 stoichiometry.
as §2, §3
Table S2: ITC experimental conditions for titration of VhCBP and its mutants with (GlcNAc) 2-4 . […]

VhCBP W363A = test: ITC titration of VhCBP mutant W363A with (GlcNAc)2
From the text: as §1, §2, §3, §4, §5

VhCBP N409A = test: ITC titration of VhCBP mutant N409A with (GlcNAc)2
From the text: as §1, §2, §3, §4, §5

VhCBP E10A = test: ITC titration of VhCBP mutant E10A with (GlcNAc)2
From the text: as §1, §2, §3, §4, §5

VhCBP N204A = test: ITC titration of VhCBP mutant N204A with (GlcNAc)2
From the text: as §1, §2, §3, §4, §5

VhCBP W363A/W513A = test: ITC titration of VhCBP double mutant W363A/W513A with (GlcNAc)2; conditions: 20 mM Tris HCl pH 8.0, 25 °C
From the text: To evaluate the contributions of the amino acid residues in (GlcNAc)2 binding, we carried out site-directed mutagenesis to substitute the designated residues and successfully produced nine single mutants, E10A, N204A, S221A, W363A, D365A, N409A, F411A, F437A, and W513A, and one double mutant, W363A/W513A. All proteins were purified to homogeneity by Ni-NTA affinity chromatography, followed by gel filtration, and their purities were checked by SDS-PAGE analysis (Fig. S2). These proteins were used for ITC binding experiments with (GlcNAc)2 as the ligand. […] The effects on ΔG° in the other mutants (E10A, N204A, S221A, N409A, and F411A) were moderate, although one mutation had been introduced into an amino acid with a high degree of conservation (Asn^204). Changes in ΔG° (ΔΔG°) resulting from all the mutations were mapped on the structure of VhCBP in complex with (GlcNAc)2 as shown in Figure 6B. Degrees of conservation among five members of cluster/subcluster C-IV SBPs (VhCBP, VcCBP, TmCeBP, TmMnBP1, and TmMnBP2) are also represented by coloring dark red (high degree of conservation) to pale red (moderate degree of conservation) to white (low degree of conservation).
Figure 5 ITC profiles obtained from (GlcNAc)2titration using VhCBP WT and mutants. Thermograms (upper) and binding isotherms with theoretical fits (lower) of the individual titrations are presented. […]

VhCBP D365A = test: ITC titration of VhCBP mutant D365A with (GlcNAc)2
From the text: as §1, §2, §3, §4, §5

For `CC(=O)N[C@H]1[C@H](O[C@H]2[C@H](O)[C@@H](NC(C)=O)C(O)O[C@@H]2CO)O[C@H](CO)[C@@H](O)[C@@H]1O` (stereo partly drawn) [(GlcNAc)2], the “ΔΔG°” value (VhCBP F437A; F437A versus WT) was “+4.1 ± 0.3 kcal.mol^−1”, the Kd (VhCBP F437A; ITC, F437A, 20 mM Tris-HCl pH 8.0, 25 °C, mean ± SD) was 29.7 ± 0.5 µM and the “ΔG°” value (VhCBP F437A; ITC, F437A, pH 8.0, 25 °C) was -6.2 ± 0.0 kcal/mol. The “ΔH°” value (VhCBP F437A; ITC, F437A, pH 8.0, 25 °C) was -11.0 ± 0.4 kcal/mol, the Kd (VhCBP S221A; ITC, S221A, 20 mM Tris-HCl pH 8.0, 25 °C, mean ± SD) was 0.07 ± 0.06 µM and the “ΔG°” value (VhCBP S221A; ITC, S221A, pH 8.0, 25 °C) was -10.2 ± 1.0 kcal/mol. The “ΔH°” value (VhCBP S221A; ITC, S221A, pH 8.0, 25 °C) was -5.3 ± 0.7 kcal/mol, the “−TΔS°” value (VhCBP S221A; ITC, S221A, pH 8.0, 25 °C) was -4.9 ± 1.4 kcal/mol and the “ΔΔG°” value (VhCBP S221A; S221A versus WT) was “+0.1 ± 1.0 kcal.mol^−1”. For the same compound, the Kd (VhCBP W513A; ITC, W513A ('half-open'/semiopen state), 20 mM Tris-HCl pH 8.0, 25 °C, mean ± SD) was 36.8 ± 7.4 µM, the “ΔG°” value (VhCBP W513A; ITC, W513A, pH 8.0, 25 °C) was -6.1 ± 0.1 kcal/mol and the “ΔH°” value (VhCBP W513A; ITC, W513A, pH 8.0, 25 °C) was -5.8 ± 0.0 kcal/mol. The “−TΔS°” value (VhCBP W513A; ITC, W513A, pH 8.0, 25 °C) was -0.3 ± 0.1 kcal/mol, the “lower affinity of semiopen state than the closed state” value (VhCBP W513A; W513A (semiopen) versus WT (closed), from Kd) was 1200 and the “ΔΔG°” value (VhCBP W513A; W513A versus WT) was “+4.2 ± 0.3 kcal.mol^−1”. For the same compound, the “ΔΔG°” value (VhCBP F411A; F411A versus WT) was “+1.6 ± 0.3 kcal.mol^−1”, the Kd (VhCBP F411A; ITC, F411A, 20 mM Tris-HCl pH 8.0, 25 °C, mean ± SD) was 0.4 ± 0.07 µM and the “ΔG°” value (VhCBP F411A; ITC, F411A, pH 8.0, 25 °C) was -8.7 ± 0.1 kcal/mol. For the same compound, the “ΔH°” value (VhCBP F411A; ITC, F411A, pH 8.0, 25 °C) was -3.3 ± 0.1 kcal/mol, the “−TΔS°” value (VhCBP F411A; ITC, F411A, pH 8.0, 25 °C) was -5.4 ± 0.1 kcal/mol and the “ΔG°” value (VhCBP WT) was -10.3 ± 0.3 kcal/mol. For the same compound, the “ΔH°” value (VhCBP WT) was -3.9 ± 0.1 kcal/mol, the “−TΔS°” value (VhCBP WT) was -6.4 ± 0.2 kcal/mol and the Kd (VhCBP WT) was 0.03 ± 0.01 µM. For the same compound, the Kd (VhCBP W363A; ITC, W363A, 20 mM Tris-HCl pH 8.0, 25 °C, mean ± SD) was 80.2 ± 19.9 µM, the “ΔG°” value (VhCBP W363A; ITC, W363A, pH 8.0, 25 °C) was -5.6 ± 0.1 kcal/mol and the “ΔH°” value (VhCBP W363A; ITC, W363A, pH 8.0, 25 °C) was -1.9 ± 1.8 kcal/mol. The “−TΔS°” value (VhCBP W363A; ITC, W363A, pH 8.0, 25 °C) was -3.7 ± 2.0 kcal/mol, the “ΔΔG°” value (VhCBP W363A; W363A versus WT) was “+4.7 ± 0.4 kcal.mol^−1” and the Kd (VhCBP N409A; ITC, N409A, 20 mM Tris-HCl pH 8.0, 25 °C, mean ± SD) was 0.45 ± 0.1 µM. For the same compound, the “ΔG°” value (VhCBP N409A; ITC, N409A, pH 8.0, 25 °C) was -8.7 ± 0.1 kcal/mol, the “ΔH°” value (VhCBP N409A; ITC, N409A, pH 8.0, 25 °C) was -9.6 ± 0.6 kcal/mol and the “−TΔS°” value (VhCBP N409A; ITC, N409A, pH 8.0, 25 °C) was 1.0 ± 0.7 kcal/mol. The “ΔΔG°” value (VhCBP N409A; N409A versus WT) was “+1.6 ± 0.2 kcal.mol^−1”, the “ΔΔG°” value (VhCBP E10A; E10A versus WT) was “+1.9 ± 0.2 kcal.mol^−1” and the Kd (VhCBP E10A; ITC, E10A, 20 mM Tris-HCl pH 8.0, 25 °C, mean ± SD) was 0.71 ± 0.07 µM. The “ΔG°” value (VhCBP E10A; ITC, E10A, pH 8.0, 25 °C) was -8.4 ± 0.1 kcal/mol, the “ΔH°” value (VhCBP E10A; ITC, E10A, pH 8.0, 25 °C) was -8.8 ± 0.1 kcal/mol and the “−TΔS°” value (VhCBP E10A; ITC, E10A, pH 8.0, 25 °C) was 0.4 ± 0.2 kcal/mol. For the same compound, the Kd (VhCBP N204A; ITC, N204A, 20 mM Tris-HCl pH 8.0, 25 °C, mean ± SD) was 0.83 ± 0.17 µM, the “ΔG°” value (VhCBP N204A; ITC, N204A, pH 8.0, 25 °C) was -8.3 ± 0.1 kcal/mol and the “ΔH°” value (VhCBP N204A; ITC, N204A, pH 8.0, 25 °C) was -0.75 ± 0.05 kcal/mol. The “−TΔS°” value (VhCBP N204A; ITC, N204A, pH 8.0, 25 °C) was -7.6 ± 0.2 kcal/mol, the “ΔΔG°” value (VhCBP N204A; N204A versus WT) was “+2.1 ± 0.3 kcal.mol^−1” and the “binding detected by ITC (ND represents no detectable binding)” value (VhCBP W363A/W513A) was “did not exhibit any clear heat release”. For the same compound, the “ΔΔG°” value (VhCBP D365A; D365A versus WT) was “+8.6 ± 0.3 kcal.mol^−1”, the Kd (VhCBP D365A; ITC, D365A, 20 mM Tris-HCl pH 8.0, 25 °C, mean ± SD) was 65000 µM and the “ΔG°” value (VhCBP D365A; ITC, D365A, pH 8.0, 25 °C) was -1.6 ± 0.0 kcal/mol. The “ΔH°” value (VhCBP D365A; ITC, D365A, pH 8.0, 25 °C) was -11.3 ± 0.4 kcal/mol and the “−TΔS°” value (VhCBP D365A; ITC, D365A, pH 8.0, 25 °C) was 9.7 ± 0.4 kcal/mol.

`CC(=O)N[C@H]1[C@H](O[C@H]2[C@H](O)[C@@H](NC(C)=O)C(O)O[C@@H]2CO)O[C@H](CO)[C@@H](O[C@@H]2O[C@H](CO)[C@@H](O)[C@H](O)[C@H]2NC(C)=O)[C@@H]1O` (stereo partly drawn) [(GlcNAc)3] was tested, and the “ΔG°” value (VhCBP WT) was -9.7 ± 0.3 kcal/mol, the “ΔH°” value (VhCBP WT) was -4.7 ± 0.1 kcal/mol and the “−TΔS°” value (VhCBP WT) was -5.0 ± 0.3 kcal/mol. For the same compound, the Kd (VhCBP WT) was 0.09 ± 0.05 µM and the “fold lower affinity than (GlcNAc)2” value (VhCBP WT) was 3 fold.

With `CC(=O)N[C@H]1[C@H](O[C@H]2[C@H](O)[C@@H](NC(C)=O)C(O)O[C@@H]2CO)O[C@H](CO)[C@@H](O[C@@H]2O[C@H](CO)[C@@H](O[C@@H]3O[C@H](CO)[C@@H](O)[C@H](O)[C@H]3NC(C)=O)[C@H](O)[C@H]2NC(C)=O)[C@@H]1O` (stereo partly drawn) [(GlcNAc)4] the “ΔG°” value (VhCBP WT) was -8.8 ± 0.3 kcal/mol, the “ΔH°” value (VhCBP WT) was -4.8 ± 0.6 kcal/mol and the “−TΔS°” value (VhCBP WT) was -4.0 ± 1.0 kcal/mol. For the same compound, the Kd (VhCBP WT) was 0.4 ± 0.24 µM and the “fold lower affinity than (GlcNAc)2” value (VhCBP WT) was 12 fold.
